Measurements taken from patent US20160287615A1, “NOVEL ENCAPSULATION OF FLUORESCENT, PHOTO-SENSITIVE, OR OXYGEN-SENSITIVE ACTIVE INGREDIENT FOR TOPICAL APPLICATION” (BioPharmX, Inc., priority 2015, published 2016).
Counter-ions that a name gives are not always drawn.

Columns and labels:
[1] = 10 h
Procedure: Additional data was collected with a high performance liquid chromatography (HPLC) machine for two samples. The first sample was minocycline HCl and the second sample comprised a plurality of microparticles that contained minocycline HCl. […] Following exposure of both samples to ultraviolet illumination for 10 hours, an HPLC machine was used to assess the level of degradation of the minocycline active ingredient in both samples.

[2] = Fluorescence microscopy of compositions under UV fluorescent lamp illumination; format: physicochemical; details: 450 nm excitation wavelength
Source text: FIGS. 4a and 4b are images of the fluorescence given off by different compositions in response to illumination with a UV fluorescent lamp. The images of FIGS. 4a and 4b were captured using a digital camera connected to a microscope.
FIGS. 5a and 5b are images of the fluorescence given off by different compositions in response to illumination with a UV fluorescent lamp. The images of FIGS. 5a and 5b were captured using a digital camera connected to a microscope.
The composition includes minocycline contained in a plurality of Mg2CO3 tubular microparticles with a concentration of 1:100 of minocycline to Mg2CO3 tubular microparticles (10 milligrams of minocycline per gram of Mg2CO3 tubular microparticles).
The composition shown in FIG. 4b was made by dissolving minocycline HCl in methyl alcohol at a concentration of 10 mg/ml. A plurality of tubular microparticles comprising Mg2CO3 was added to the solution. Microscope slides were prepared with minocycline HCl (shown in FIG. 4a) and the prepared composition with a plurality of tubular microparticles described in this paragraph (shown in FIG. 4b).
Fluorescence can be an indicator of photo-initiated degradation of some antibiotics, including minocycline.

degradation of the minocycline active ingredient [1]: 4.3% | fluorescence emission wavelength [2]: approximately 670 nm | fluorescence observed by fluorescence microscopy ([2]; UV fluorescent lamp illumination, microscope magnification at 10 times): showed fluorescence emission
SMILES: CN(C)c1ccc(O)c2c1C[C@H]1C[C@H]3[C@H](N(C)C)C(O)=C(C(N)=O)C(=O)[C@@]3(O)C(O)=C1C2=O [minocycline HCl]
